Key:
[1] = PAMPA artificial lipid membrane permeability; type: in vitro ADME; details: pH 7.4, 4 hours incubation, GIT lipid; for Papp at 4 h, 50 µM: PAMPA
Protocol: The PAMPA assay (pION, Inc., Woburn Mass.) was used to determine the ability of compounds of the invention to cross an artificial lipid membrane by passive diffusion. Test compounds were dissolved in DMSO (10 mM) and diluted 200-fold in buffer (pION Inc., pH 7.4) to provide 50 uM stock solutions. Buffer (150 μL) was added to a UV blank plate and stock solutions (150 μL) were transferred to a UV reference plate. The blank and reference spectrum were read using a spectrophotometer. Stock solutions (200 μL) were added to the donor plate of the PAMPA sandwich plate and an accept plate painted with GIT lipid (pION Inc, 5 μL) was placed on top. Buffer (200 μL) was added to the acceptor plate and the PAMPA sandwich plate was incubated for 4 hours. Aliquots (150 μL) from the acceptor plate were added to a UV plate and read as acceptor spectrum. Aliquots (150 μL) of the donor solutions were added to a UV analysis plate and read as donor spectrum. The permeability coefficient of test compounds was calculated using PAMPA Explorer™ software (version 3.5.0.4) based on the AUC of the reference plate, the donor plate, and the acceptor plate.

[2] = molecular target: T1, NaV1.7 (Homo sapiens, UniProt Q15858); experiment: Nav1.7 intracellular inhibition, whole cell patch clamp (internal block); type: cell-based; details: compound in internal solution; for inhibition at 10 µM: test concentration of 10 μM
T1 construct: expressed in transfected cells; host or cells: Tetracycline-inducible cell line kept under hygromycin and blasticidin selection
Protocol: (§1) NaV1.7 was expressed upon induction with tetracycline. Cells were cultured in DMEM containing 10% dialyzed Fetal Bovine Serum (VWR, Radnor, Pa.), 1% Glutamax (VWR, Radnor, Pa.), 1% Penicillin-Streptomycin (VWR, Radnor, Pa.), 100 mg/L Hygromycin (Thermo Fisher Scientific, Waltham, Mass. and 5 mg/L Blasticidin (Alfa Aesar, Haverhill MAI Cells were grown and maintained at 37° C. in a humidified environment containing 10% CO2 in air. Cells were detached from the culture flask for passage and harvested using 0.05% Trypsin-EDTA (Thermo Fisher Scientific, Waltham, Mass.). To induce NaV1.7, cells were induced with tetracycline (0.1-1 μg/mL, IBI Scientific, Peosta, Iowa) the day before recording and plated onto 24-well plates. Cells were washed with DPBS (VWR, Radnor, Pa.), trypsinized and then triturated five times in 10 mL of growth media to break apart cell aggregates. For one 24-well plate, 2 mL of cell suspension was mixed with 23 mL of fresh growth media and 0.1-1 μg/mL tetracycline added. 1 ml of mixed media with cells was then added to each well of a 24-well plate, with a 12 mm coverslip already placed in the bottom of the well. Cells were then incubated in 37° C. and 10% CO2 overnight.
(§2) The intracellular solution contained the following (in mM) CsCl 135, NaCl 10, […], HEPES 10, MgCl2 2, adjusted to pH 7.2 with CsOH. The external solution was a normal Ringer solution containing (in mM) NaCl 155, HEPES 10, glucose 10, KCl 3.5, CaCl2 1.5, MgCl2 1 adjusted to pH 7.4 with NaOH. CsCl was from Alfa Aesar, Haverhill Mass. All other chemicals were from Sigma-Aldrich, St. Louis. Mo. In order to test the degree of internal block by test compounds the compounds were dissolved in internal solution at the indicated test concentration. […] In order to test the degree of external block by test compounds the compounds were dissolved in external solution at the indicated test concentration.
(§3) 18-24 hours after cells were induced with tetracycline, coverslips placed into a chamber filled with Normal Ringer solution at room temperature and the chamber placed on a microscope. Pipettes were pulled from borosilicate glass on a P97 puller (Sutter Instrument, Novato, Calif.) and polished with a MF-830 Microforge (Narishige International USA, Inc, Amityville, N.Y.) to have a resistance of 1.5-2.5 MΩ when filled with CsCl internal solution at room temperature. Healthy cells (those that are round and translucent with no visible blemishes) were chosen for seal formation. A seal was formed between the pipette and the cell, and a brief pulse of suction used to “break in” and establish the whole-cell configuration. The membrane potential was held at −100 mV before the voltage protocol began. Only cells with series resistance between 1.5-5 M were retained for analysis. The voltage protocol was as follows: Cells were held at −100 mV for 12 ms followed by a hyperpolarizing step to −105 mV for 12 ms to monitor the leak. Cells were then stepped back to −100 mV for 40 ms. Cells were then depolarized to −20 mV for 10 ms and returned to −100 mV for 26 ms.
(§4) Once the recording was started, the voltage protocol was run at 30 second intervals for 5 minutes to get a stable baseline. This was followed by four 30-second periods of 5 Hz stimulation of the same voltage protocol separated by 1 minute of rest which was then followed by 0.33 Hz stimulation after the last train. Currents were recorded using PatchMaster software with Heka EPC10 (HEKA Electronics, Lambrecht, Germany). Only cells with inward current amplitudes at −20 mV between 400 pA and 4 nA were accepted. In addition, cells having leak currents greater than 10% of their current amplitudes were discarded.
(§5) The data was plotted using the Patchmaster software (HEKA Electronics, Lambrecht, Germany) and analyzed by plotting the minimum current during the voltage step to −20 mV (peak inward current) as a function of time. […]

[3] = molecular target: T1, NaV1.7; experiment: Nav1.7 extracellular inhibition, whole cell patch clamp (external block); type: cell-based; details: compound in external solution; for inhibition at 10 µM: read-out: Nav1.7 extracellular inhibition, extracellular inhibition, read-out: Nav1.7 Intracellular Inhibition; for inhibition at 30 µM: test concentration of 30 μM
Protocol: as §1, §2, §3
as §4, with “by” for “by four 30-second periods of”, “run until the end” for “separated by 1 minute”, “experiment. […] The test compound” for “rest which”, “added for 5 minutes before washing out with normal Ringer's solution.” for “then followed by 0.33 Hz stimulation after the last train.”
as §5, with “time. To determine the % block produced by test compounds applied externally the following was done.” for “time.”

T1 sequence (Q15858 whole entry): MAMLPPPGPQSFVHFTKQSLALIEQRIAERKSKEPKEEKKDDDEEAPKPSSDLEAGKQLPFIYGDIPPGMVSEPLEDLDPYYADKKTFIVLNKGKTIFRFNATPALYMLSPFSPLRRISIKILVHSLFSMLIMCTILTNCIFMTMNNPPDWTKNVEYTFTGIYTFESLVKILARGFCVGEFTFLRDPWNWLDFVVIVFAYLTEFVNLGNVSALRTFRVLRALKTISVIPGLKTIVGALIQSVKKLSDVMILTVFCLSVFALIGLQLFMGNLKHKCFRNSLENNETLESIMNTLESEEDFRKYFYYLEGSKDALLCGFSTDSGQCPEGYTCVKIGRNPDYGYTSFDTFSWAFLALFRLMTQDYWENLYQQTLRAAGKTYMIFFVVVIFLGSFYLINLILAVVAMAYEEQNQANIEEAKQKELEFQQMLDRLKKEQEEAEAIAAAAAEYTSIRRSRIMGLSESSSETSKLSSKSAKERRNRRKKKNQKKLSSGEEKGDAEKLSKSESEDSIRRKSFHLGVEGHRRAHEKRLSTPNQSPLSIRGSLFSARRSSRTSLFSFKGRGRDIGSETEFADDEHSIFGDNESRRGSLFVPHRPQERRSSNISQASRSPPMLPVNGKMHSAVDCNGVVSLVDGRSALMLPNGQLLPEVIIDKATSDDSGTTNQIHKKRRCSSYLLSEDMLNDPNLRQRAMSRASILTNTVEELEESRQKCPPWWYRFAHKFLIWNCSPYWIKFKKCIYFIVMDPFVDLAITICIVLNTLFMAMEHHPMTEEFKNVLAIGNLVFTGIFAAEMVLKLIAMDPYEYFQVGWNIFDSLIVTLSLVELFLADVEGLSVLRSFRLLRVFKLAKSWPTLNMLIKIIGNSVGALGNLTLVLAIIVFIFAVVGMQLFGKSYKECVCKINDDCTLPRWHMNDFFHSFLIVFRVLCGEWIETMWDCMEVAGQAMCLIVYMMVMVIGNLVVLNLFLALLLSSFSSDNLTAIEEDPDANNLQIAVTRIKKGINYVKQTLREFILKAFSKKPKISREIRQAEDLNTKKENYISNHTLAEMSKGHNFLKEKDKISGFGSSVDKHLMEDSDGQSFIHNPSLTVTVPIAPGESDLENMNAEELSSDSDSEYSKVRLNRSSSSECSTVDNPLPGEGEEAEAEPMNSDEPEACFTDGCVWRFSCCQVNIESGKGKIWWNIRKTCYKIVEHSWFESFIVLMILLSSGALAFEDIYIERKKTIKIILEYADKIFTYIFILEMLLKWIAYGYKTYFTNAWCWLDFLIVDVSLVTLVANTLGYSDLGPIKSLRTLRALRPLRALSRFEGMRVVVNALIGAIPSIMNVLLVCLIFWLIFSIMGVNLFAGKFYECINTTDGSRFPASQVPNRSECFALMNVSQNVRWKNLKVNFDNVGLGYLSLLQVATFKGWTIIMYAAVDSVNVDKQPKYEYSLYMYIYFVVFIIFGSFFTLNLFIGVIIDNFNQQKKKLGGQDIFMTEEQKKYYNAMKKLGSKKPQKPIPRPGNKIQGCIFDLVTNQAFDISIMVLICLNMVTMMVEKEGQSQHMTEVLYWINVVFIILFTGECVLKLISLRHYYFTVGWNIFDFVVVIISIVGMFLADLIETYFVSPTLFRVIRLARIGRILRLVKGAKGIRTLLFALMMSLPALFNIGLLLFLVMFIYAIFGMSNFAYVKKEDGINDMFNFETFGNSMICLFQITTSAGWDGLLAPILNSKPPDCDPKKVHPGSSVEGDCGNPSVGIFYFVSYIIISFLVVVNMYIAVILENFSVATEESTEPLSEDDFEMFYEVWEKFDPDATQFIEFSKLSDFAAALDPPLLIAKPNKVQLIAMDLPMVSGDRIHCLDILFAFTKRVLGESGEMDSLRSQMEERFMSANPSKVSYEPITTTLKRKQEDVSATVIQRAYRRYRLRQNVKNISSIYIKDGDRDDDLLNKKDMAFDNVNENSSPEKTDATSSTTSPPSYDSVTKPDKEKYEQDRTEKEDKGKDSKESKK

Row | PAMPA (10^−6cm/s) [1] | inhibition at 3 µM [2] [%] | inhibition at 10 µM [3] [%] | Papp at 4 h, 50 µM [1] [×10⁻⁶ cm/s] | inhibition at 10 µM [2] [%] | inhibition at 30 µM [3] [%] | Compound
1 | + ((<0.1 10^−6 cm/s)) | 70 to 90 | < 40 |  |  |  | Cc1cccc(C(=O)OC(C)(C)C)c1NC(=O)C[n+]1cccn1C1CCCCC1.[Br-] [D]
2 | + ((<0.1 10^−6 cm/s)) | 40 to 70 | < 40 | < 1 | > 70 | < 30 | COC(=O)c1scc(C)c1NC(=O)C[n+]1cccn1C1CCCCC1 [Compound 22]
3 | + ((<0.1 10^−6 cm/s)) | > 90 | < 40 |  |  |  | CCCOC(=O)c1scc(C)c1NC(=O)C[n+]1cccn1C1CCCCC1.[Br-] [B]
4 | + ((<0.1 10^−6 cm/s)) | 70 to 90 | 40 to 70 |  |  |  | Cc1csc(C(=O)OC(C)(C)C)c1NC(=O)C[n+]1cccc(-c2ccccc2)c1.[Br-] [A]
5 | + ((<0.1 10^−6 cm/s)) | 40 to 70 | < 40 | < 1 | > 70 | < 30 | COC(=O)c1scc(C)c1NC(=O)C[n+]1cccc(-c2ccccc2)c1 [Compound 23]
6 | + ((<0.1 10^−6 cm/s)) | 70 to 90 | < 40 |  |  |  | CCOC(=O)c1scc(C)c1NC(=O)C[n+]1cccn1C1CCCCC1 [C]

Source: patent publication US11696912B2, “Charged ion channel blockers and methods for use” (Nocion Therapeutics, Inc., priority 2019, dated 2023)
